ChEMBL document CHEMBL6134779, “Design of Proteolytic-Resistant Antifungal Peptides by Utilizing Minimum d-Amino Acid Ratios” (J Med Chem, 2024)
≈ marks a conversion by molar mass, not a printed value.

Key:
[1] = system: Candida albicans; test: Antifungal activity against Candida albicans CGMCC 2.2086 assessed as inhibition of fungal growth incubated for 48 hrs in presence of FeCl3; type: functional
[2] = Stability of the compound in CaCl2 assessed as change in secondary structure by CD spectra analysis; type: physicochemical
[3] = system: Candida albicans; test: Antifungal activity against Candida albicans CGMCC 2.2086 assessed as inhibition of fungal growth incubated for 48 hrs in presence of NH4Cl; type: functional
[4] = system: Candida albicans; test: Antifungal activity against Candida albicans CGMCC 2.2086 assessed as inhibition of fungal growth incubated for 48 hrs in presence of ZnCl2; type: functional
[5] = system: Candida albicans; test: Antifungal activity against Candida albicans SP3931 assessed as inhibition of fungal growth incubated for 48 hrs; type: functional
[6] = Hemolytic activity in human red blood cells assessed as hemolysis incubated for 1 hr; type: toxicity, cell-based, Erythrocyte
[7] = system: Candida albicans; test: Antifungal activity against Candida albicans 14936 assessed as inhibition of fungal growth incubated for 48 hrs; type: functional
[8] = system: Candida parapsilosis; test: Antifungal activity against Candida parapsilosis CGMCC 2.3989 assessed as inhibition of fungal growth incubated for 48 hrs; type: functional; conditions: Lodderomyces parapsilosis
[9] = Stability of the compound in FeCl3 assessed as change in secondary structure by CD spectra analysis; type: physicochemical
[10] = system: Candida albicans; test: Antifungal activity against Candida albicans CGMCC 2.2086 assessed as inhibition of fungal growth incubated for 48 hrs in presence of CaCl2; type: functional
[11] = Stability of the compound in MgCl2 assessed as change in secondary structure by CD spectra analysis; type: physicochemical
[12] = Stability of the compound in ZnCl2 assessed as change in secondary structure by CD spectra analysis; type: physicochemical
[13] = system: Candida albicans; test: Antifungal activity against Candida albicans 17546 assessed as inhibition of fungal growth incubated for 48 hrs; type: functional
[14] = Stability of the compound in NH4Cl assessed as change in secondary structure by CD spectra analysis; type: physicochemical
[15] = system: Candida albicans; test: Antifungal activity against Fluconazole-resistant Candida albicans 58288 assessed as inhibition of fungal growth incubated for 48 hrs; type: functional
[16] = Stability of the compound in NaCl assessed as change in secondary structure by CD spectra analysis; type: physicochemical
[17] = system: Candida albicans; test: Antifungal activity against Candida albicans SP3876 assessed as inhibition of fungal growth incubated for 48 hrs; type: functional
[18] = system: Candida tropicalis; test: Antifungal activity against Candida tropicalis CGMCC 2.1975 assessed as inhibition of fungal growth incubated for 48 hrs; type: functional
[19] = system: Candida albicans; test: Antifungal activity against Candida albicans CGMCC 2.2086 assessed as inhibition of fungal growth incubated for 48 hrs; type: functional
[20] = system: Candida albicans; test: Antifungal activity against Candida albicans SP3902 assessed as inhibition of fungal growth incubated for 48 hrs; type: functional
[21] = system: Candida albicans; test: Antifungal activity against Candida albicans 56452 assessed as inhibition of fungal growth incubated for 48 hrs; type: functional
[22] = system: Candida albicans; test: Antifungal activity against Fluconazole-resistant Candida albicans 56214 assessed as inhibition of fungal growth incubated for 48 hrs; type: functional
[23] = Stability of the compound in KCl assessed as change in secondary structure by CD spectra analysis; type: physicochemical
[24] = system: Candida albicans; test: Antifungal activity against Candida albicans CGMCC 2.2086 assessed as inhibition of fungal growth incubated for 48 hrs in presence of MgCl2; type: functional
[25] = system: Candida albicans; test: Antifungal activity against Candida albicans SP3903 assessed as inhibition of fungal growth incubated for 48 hrs; type: functional
[26] = Hemolytic activity in human red blood cells assessed as hemolysis rate at 512 uM incubated for 1 hr relative to control; type: toxicity, cell-based, Erythrocyte; conditions: read-out: Activity
[27] = system: Candida albicans; test: Antifungal activity against Candida albicans CGMCC 2.2086 assessed as inhibition of fungal growth incubated for 48 hrs in presence of KCl; type: functional
[28] = system: Candida albicans; test: Antifungal activity against Candida albicans CGMCC 2.2086 assessed as inhibition of fungal growth incubated for 48 hrs in presence of NaCl; type: functional

| Structure (SMILES) | MIC95 [1] [µM] | Stability [2] | MIC95 [3] [µM] | MIC95 [4] [µM] | MIC95 [5] [µM] | HC50 at 1 h [6] [µM] | MIC95 [7] [µM] | MIC95 [8] [µM] | Stability [9] | MIC95 [10] [µM] | Stability [11] | MIC95 [13] [µM] | MIC95 [15] [µM] | MIC95 [17] [µM] | MIC95 [18] [µM] | MIC95 [19] [µM] | MIC95 [20] [µM] | MIC95 [21] [µM] | MIC95 [22] [µM] | MIC95 [25] [µM] | further results |
| --- | --- | --- | --- | --- | --- | --- | --- | --- | --- | --- | --- | --- | --- | --- | --- | --- | --- | --- | --- | --- | --- |
| CC(C)[C@H](N)C(=O)N[C@H](C(=O)N[C@H](CCCNC(=N)N)C(=O)N[C@@H](CCCNC(=N)N)C(=O)N[C@@H](Cc1c[nH]cn1)C(=O)N[C@H](C(=O)N[C@H](C(=O)N[C@H](C(=O)N[C@H](C(=O)N[C@H](CCCNC(=N)N)C(=O)N[C@@H](CCCNC(=N)N)C(=O)N[C@@H](Cc1c[nH]cn1)C(=O)N[C@H](C(=O)N[C@H](C(N)=O)C(C)C)C(C)C)C(C)C)C(C)C)C(C)C)C(C)C)C(C)C | > 64 | Stable | 64 | > 64 | > 64 | > 512 | > 64 | > 64 | Stable | > 64 | Stable | 64 (≈ 109 µg/mL) | > 64 | > 64 | 4 (≈ 6.84 µg/mL) | > 64 | > 64 | > 64 | > 64 | > 64 | Stability [12]: Stable; Stability [14]: Stable; Stability [16]: Unstable; Stability [23]: Stable; MIC95 [24]: > 64 µM; hemolysis at 1 h, 512 µM [26]: -1.2%; MIC95 [27]: > 64 µM; MIC95 [28]: > 64 µM |
| CC(C)[C@H](N)C(=O)N[C@H](C(=O)N[C@H](CCCNC(=N)N)C(=O)N[C@@H](CCCNC(=N)N)C(=O)N[C@@H](Cc1c[nH]cn1)C(=O)N[C@H](C(=O)N[C@H](C(N)=O)C(C)C)C(C)C)C(C)C | > 64 | Stable | > 64 | > 64 | > 64 | > 512 | > 64 | > 64 | Stable | > 64 | Stable | > 64 | > 64 | > 64 | 64 (≈ 55.2 µg/mL) | > 64 | > 64 | > 64 | > 64 | > 64 | Stability [12]: Stable; Stability [14]: Stable; Stability [16]: Unstable; Stability [23]: Stable; MIC95 [24]: > 64 µM; hemolysis at 1 h, 512 µM [26]: -0.02%; MIC95 [27]: > 64 µM; MIC95 [28]: > 64 µM |
| CC[C@H](C)[C@H](N)C(=O)N[C@H](C(=O)N[C@H](CCCNC(=N)N)C(=O)N[C@@H](CCCNC(=N)N)C(=O)N[C@@H](Cc1c[nH]cn1)C(=O)N[C@H](C(=O)N[C@H](C(=O)N[C@H](C(=O)N[C@H](C(=O)N[C@H](CCCNC(=N)N)C(=O)N[C@@H](CCCNC(=N)N)C(=O)N[C@@H](Cc1c[nH]cn1)C(=O)N[C@H](C(=O)N[C@H](C(N)=O)[C@@H](C)CC)[C@@H](C)CC)[C@@H](C)CC)[C@@H](C)CC)[C@@H](C)CC)[C@@H](C)CC)[C@@H](C)CC | 64 | Stable | 32 | 64 | 16 (≈ 29.1 µg/mL) | > 512 | 32 (≈ 58.3 µg/mL) | 32 (≈ 58.3 µg/mL) | Stable | > 64 | Stable | 64 (≈ 117 µg/mL) | 32 (≈ 58.3 µg/mL) | 32 (≈ 58.3 µg/mL) | 2 (≈ 3.64 µg/mL) | 16 (≈ 29.1 µg/mL) | 8 (≈ 14.6 µg/mL) | 32 (≈ 58.3 µg/mL) | 64 (≈ 117 µg/mL) | 64 (≈ 117 µg/mL) | Stability [12]: Stable; Stability [14]: Stable; Stability [16]: Unstable; Stability [23]: Stable; MIC95 [24]: 64 µM; hemolysis at 1 h, 512 µM [26]: 1.84%; MIC95 [27]: 32 µM; MIC95 [28]: > 64 µM |
| CC(=O)N1CCN(c2ccc(OCC3COC(Cn4ccnc4)(c4ccc(Cl)cc4Cl)O3)cc2)CC1 (centres undefined) [KETOCONAZOLE] | – | – | – | – | 4 (≈ 2.13 µg/mL) | – | 4 (≈ 2.13 µg/mL) | 4 (≈ 2.13 µg/mL) | – | – | – | 2 (≈ 1.06 µg/mL) | > 64 | 16 (≈ 8.5 µg/mL) | 2 (≈ 1.06 µg/mL) | 2 (≈ 1.06 µg/mL) | 2 (≈ 1.06 µg/mL) | 1 (≈ 0.531 µg/mL) | > 64 | 4 (≈ 2.13 µg/mL) | – |
| CC[C@H](C)[C@H](N)C(=O)N[C@H](C(=O)N[C@H](CCCNC(=N)N)C(=O)N[C@@H](CCCNC(=N)N)C(=O)N[C@@H](Cc1c[nH]cn1)C(=O)N[C@H](C(=O)N[C@H](C(N)=O)[C@@H](C)CC)[C@@H](C)CC)[C@@H](C)CC | > 64 | Stable | > 64 | > 64 | > 64 | > 512 | > 64 | > 64 | Stable | > 64 | Stable | > 64 | > 64 | > 64 | 64 (≈ 58.8 µg/mL) | > 64 | 64 (≈ 58.8 µg/mL) | > 64 | > 64 | > 64 | Stability [12]: Stable; Stability [14]: Stable; Stability [16]: Unstable; Stability [23]: Stable; MIC95 [24]: > 64 µM; hemolysis at 1 h, 512 µM [26]: -1.57%; MIC95 [27]: > 64 µM; MIC95 [28]: > 64 µM |
